≈ marks a conversion by molar mass, not a printed value.
How the values were obtained:
Assay type in all cases: physicochemical
physchem = conditions: for solubility: water, solubility in water
Protocol: In method (a) 47.4 grams (0.3 mole) of 2,2,5,5-tetramethylimidazolidine-4-thione was dissolved in 1.2 liters of 3 Normal sodium hydroxide solution (3.6 moles) in a 2 liter flask. The flask and its contents were cooled to 5° C. using an ice bath, and chlorine gas was bubbled into the mixture while stirring until the pH of the solution reached 7.0. The temperature of the mixture was not allowed to rise above 10° C. during this process. The N,N'-dichloroimidazolidin-4-one product precipitated as a white solid. Following addition of 800 milliliters of water to the flask, the solid product was recovered by suction filtration. The product was then purified by dissolving it in hexane, allowing the impurities and remaining water to settle, and recovery by evaporation of the volatile hexane layer which was separated from the impurity/water layer. The product yield was 53.9 grams or 85% of that theoretically expected. Elemental analysis of the product (1,3-dichloro-2,2,5,5-tetramethylimidazolidin-4-one) gave the following results: (calculated/found) % carbon 39.82/39.86, % hydrogen 5.73/5.50, % nitrogen 13.27/13.24, and % chlorine 33.59/32.88. […] Analysis of the product by proton NMR and infrared spectroscopy yielded the following results:
5.1 Grams (0.036 mole) of 2,2,5,5-tetramethylimidazolidin-4-one prepared as in example 2 was dissolved in 88 milliliters of 1 Normal sodium hydroxide solution (0.088 mole) in a 250 milliliter flask. While maintaining this mixture at 10° C. or below using an ice bath and stirring, 12.8 grams (0.08 mole) of liquid bromine was added dropwise. The product 1,3-dibromo-2,2,5,5-tetramethylimidazolidin-4-one precipitated from the mixture as a pale yellow solid. The product was recovered by suction filtration and purified by recrystallization from hexane. The product yield was 9.2 grams or 85% of that theoretically expected. Elemental analysis of the product (1,3-dibromo-2,2,5,5-tetramethylimidazolidin-4-one) gave the following results: (calculated/found) % carbon 28.00/27.80, % hydrogen 4.00/4.07, % nitrogen 9.33/9.39, and % bromine 53.33/52.09. […] Analysis of the product by proton NMR and infrared spectroscopy yielded the following results:
6.4 Grams (0.045 mole) of 2,2,5,5-tetramethylimidazolidin-4-one prepared as in example 2 was dissolved in 55 milliliters of 1 Normal sodium hydroxide solution (0.055 mole) in a 250 milliliter flask. While maintaining the reaction mixture at a temperature of 5°-10° C. by use of an ice bath and stirring, 4.0 grams (0.025 mole) of liquid bromine was added dropwise. The reaction mixture was stirred at ice bath temperature for an additional 1 hour and then for 1-2 hours at cold water bath conditions (10°-20° C.). Following cooling the mixture below 10° C. again, 50 milliliters of 1 Normal sodium hydroxide solution (0.05 mole) was added, and chlorine gas was bubbled in while stirring at 5°-10° C. until the pH reached 6-7. The 1-bromo-3-chloro-2,2,5,5-tetramethylimidazolidin-4-one product precipitated as a white solid. The product was recovered by suction filtration and purified by recrystallization from hexane. The product yield was 11.2 grams or 97% of that theoretically expected. Elemental analysis of the product gave the following results: (calculated/found) % carbon 32.88/32.68, % hydrogen 4.70/4.74, % nitrogen 10.96/10.83, % bromine 31.31/33.37, % chlorine 13.89/12.67. The rather high and low found values as compared to the theoretical values for bromine and chlorine, respectively, indicate that the product was contaminated with a small amount of 1,3-dibromo-2,2,5,5-tetramethylimidazolidin-4-one. […] Analysis of the product by proton NMR and infrared spectroscopy yielded the following results: […]

[1] = Hydrolysis equilibrium constant in demand-free water; conditions: pH 7.0, 24°±1° C.
Protocol: The equilibrium constant for the hydrolysis reaction of 1,3-dichloro-2,2,5,5-tetramethylimidazolidin-4-one to form 1-chloro-2,2,5,5-tetramethylimidazolidin-4-one and free chlorine (Cl^+) was determined at pH 7.0 and 24°±1° C. This was accomplished by preparing a solution of the 1,3-dichloro-2,2,5,5-tetramethylimidazolidin-4-one in demand-free 0.05 molar sodium phosphate buffer (pH 7.0) and allowing the solution to equilibrate while stirring for 1 hour. Then the DPD/FAS technique (as in example 7) was used to determine the free and total chlorine concentrations in the equilibrated solution. The concentration of combined 1,3-dichloro-2,2,5,5-tetramethylimidazolidin-4-one was calculated from the difference between the measured total and free chlorine concentrations. The hydrolysis equilibrium constant was then calculated as the square of the molar free chlorine concentration divided by the molar combined chlorine concentration. For a starting molar total chlorine concentration of 4.441×10^-3 moles per liter, at equilibrium the combined chlorine concentration was 4.428×10^-3 moles per liter, and the free chlorine concentration was 1.269×10^-5 moles per liter. […] For a starting molar total chlorine concentration of 1.764×10^-3 moles per liter, at equilibrium the combined chlorine concentration was 1.759×10^-3 moles per liter, and the free chlorine concentration was 5.360×10^-6 moles per liter. […] The average equilibrium constant for the two separate determinations was thus 2.6±1.0×10^-8.

[2] = Stability in synthetic halogen demand water (SDW); conditions: SDW, 4° C.
Protocol: A synthetic halogen demand water (SDW) was prepared by mixing the following substances with demand-free water (DFW): 375 milligrams per liter of each of the inorganic salts sodium chloride, potassium chloride, calcium chloride, and magnesium chloride; 50 milligrams per liter of Bentonite clay; 30 milligrams per liter of humic acid; 0.01 percent final concentration of heat-treated horse serum; and 5×10^5 cells per milliliter of heat-killed Saccharomyces cerevisiae yeast cells. The SDW solution was buffered with 0.01 Molar borate/sodium hydroxide to a pH of 9.5 and held at 4° C. during the experiments. The conditions of high ionic strength, turbidity, and organic material, and alkaline pH at low temperature, are viewed as a worst-case scenario for disinfection applications and thus should provide the optimum test of stability for the new compounds.
In separate flasks were dissolved compounds 1, 2, 3, and 5 to a starting concentration of 10 milligrams per liter total potential positive chlorine or its molar equivalent (16.25 milligrams per liter) in total potential positive halogen for Compound 5. Aliquots were withdrawn frequently over a period of more than 90 hours, and the percent positive halogen remaining was determined by standard iodometric titration.

[3] = Laboratory stability in halogen demand-free water (DFW), iodometric titration; conditions: for Percent Chlorine Remaining: DFW, 22° C.
Protocol: The stability of 1,3-dichloro-2,2,5,5-tetramethylimidazolidin-4-one (Compound 1) in halogen demand-free water was determined at 22° C. and pH values of 4.5, 7.0, and 9.5, and the results were compared to those for free chlorine as supplied by calcium hypochlorite. The demand-free water (DFW) was prepared by chlorination of distilled, deionized water buffered to the appropriate pH followed by dechlorination (of the excess free chlorine) by exposure to direct sunlight until no free chlorine remained. This treatment insured that all halogen demand in the water was neutralized. Then Compound 1 and calcium hypochlorite were separately dissolved in identical DFW (buffered to an appropriate pH) solutions to the same final total chlorine concentrations (10 milligrams per liter potential positive chlorine). The solutions in separate flasks, which were stoppered with porous, sterile cotton plugs to allow free exchange with laboratory air, were then held at a constant temperature of 22° C. by means of a controlled water bath for a period of several weeks. Aliquots were withdrawn periodically (at least weekly), and the total positive chlorine remaining was determined in triplicate by standard iodometric titration. […]
The stabilities of 1,3-dibromo-2,2,5,5-tetramethylimidazolidin-4-one (Compound 4) and 1-bromo-3-chloro-2,2,5,5-tetramethylimidazolidin-4-one (Compound 5) in halogen demand-free water (DFW) were determined at 22° C. and pH values of 7.0 and 9.5 using the same procedures as discussed under example 9. Given the instability of Compound 1 at pH 4.5 (example 9), it was deemed unnecessary to test compounds 4 and 5 at that pH. The two compounds were dissolved in DFW buffered to the appropriate pH in separate flasks and held at a temperature of 22° C. by means of a constant temperature bath. The starting concentrations of total potential positive halogen in the two solutions were 22.6 milligrams per liter for Compound 4 and 16.25 milligrams per liter for Compound 5; these concentrations represent the molar equivalents in total potential positive halogen to that used for Compound 1 in example 9. The solutions were analyzed in the manner described in example 9.

[4] = Stability in demand-free water exposed to direct sunlight; conditions: DFW, direct sunlight, 22-24° C.
Protocol: The stabilities of compounds 1,5, and free chlorine from calcium hypochlorite (Compound 2) in water exposed to direct sunlight were determined. Each compound at the 10 milligrams per liter total chlorine concentration level (or at the molar equivalent for total halogen for Compound 5) was dissolved in 85 milliliters of demand-free water buffered at pH 7.0 in separate 100 milliliter beakers which were placed in a temperature-controlled water bath (22°-24° C.), and the bath containing the solutions was placed on the roof of the chemistry building at Auburn University exposed to direct sunlight during August 1988. Total potential positive halogen assays were made periodically on aliquots withdrawn over a 10 hour period using the standard iodometric titration technique.

[5] = starting total chlorine 1.764×10^-3 moles per liter
[6] = starting total chlorine 4.441×10^-3 moles per liter

CC1(C)C(=O)N(Br)C(C)(C)N1Br [1,3-dibromo-2,2,5,5-tetramethylimidazolidin-4-one]
solubility in water (physchem): 0.120 grams in 100 milliliters of water
solubility (physchem): 720 µg/mL (≈ 2.4 mM)

CC1(C)C(=O)N(Cl)C(C)(C)N1Cl [1,3-dichloro-2,2,5,5-tetramethylimidazolidin-4-one]
solubility in water (physchem): 0.224 grams in 100 milliliters of water
solubility (physchem): 1380 µg/mL (≈ 6.54 mM)
average hydrolysis equilibrium constant ([1]; average of two determinations): 2.6±1.0×10^-8
combined chlorine concentration at equilibrium [1, 5]: 1.759×10^-3 moles per liter
free chlorine concentration at equilibrium [1, 5]: 5.360×10^-6 moles per liter
hydrolysis equilibrium constant [1, 5]: 1.63×10^-8
combined chlorine concentration at equilibrium [1, 6]: 4.428×10^-3 moles per liter
free chlorine concentration at equilibrium [1, 6]: 1.269×10^-5 moles per liter
hydrolysis equilibrium constant [1, 6]: 3.64×10^-8

CC1(C)C(=O)N(Cl)C(C)(C)N1Br [1-bromo-3-chloro-2,2,5,5-tetramethylimidazolidin-4-one]
solubility in water (physchem): 0.193 grams in 100 milliliters of water
solubility (physchem): 1020 µg/mL (≈ 3.99 mM)

[Ca+2].[O-]Cl.[O-]Cl [Compound 2, calcium hypochlorite, reference compound]
Percent Halogen Remaining ([2]; pH 9.5, 0.5 hrs): 51.5%
Percent Halogen Remaining ([2]; pH 9.5, 1.0 hrs): 46.4%
Percent Halogen Remaining ([2]; pH 9.5, 2.5 hrs): 39.6%
Percent Halogen Remaining ([2]; pH 9.5, 4.2 hrs): 39.6%
Percent Halogen Remaining ([2]; pH 9.5, 7.5 hrs): 36.2%
Percent Halogen Remaining ([2]; pH 9.5, 24.0 hrs): 31.3%
Percent Halogen Remaining ([2]; pH 9.5, 76.5 hrs): 21.5%
Percent Chlorine Remaining ([3]; pH 4.5 (acetate), 1 week, 10080 min): 91.8%
Percent Chlorine Remaining ([3]; pH 4.5 (acetate), 2 weeks, 20160 min): 86.2%
Percent Chlorine Remaining ([3]; pH 4.5 (acetate), 3 weeks, 30240 min): 80.8%
Percent Chlorine Remaining ([3]; pH 4.5 (acetate), 4 weeks, 40320 min): 76.4%
Percent Chlorine Remaining ([3]; pH 4.5 (acetate), 5 weeks, 50400 min): 71.5%
Percent Chlorine Remaining ([3]; pH 4.5 (acetate), 6.14 weeks, 61891.2 min): 65.0%
Percent Chlorine Remaining ([3]; pH 7.0 (phosphate), 1 week, 10080 min): 91.8%
Percent Chlorine Remaining ([3]; pH 7.0 (phosphate), 2 weeks, 20160 min): 85.0%
Percent Chlorine Remaining ([3]; pH 7.0 (phosphate), 3 weeks, 30240 min): 79.6%
Percent Chlorine Remaining ([3]; pH 7.0 (phosphate), 4 weeks, 40320 min): 70.6%
Percent Chlorine Remaining ([3]; pH 7.0 (phosphate), 5 weeks, 50400 min): 63.4%
Percent Chlorine Remaining ([3]; pH 7.0 (phosphate), 6.14 weeks, 61891.2 min): 54.7%
Percent Chlorine Remaining ([3]; pH 9.5 (borate/NaOH), 1 week, 10080 min): 88.9%
Percent Chlorine Remaining ([3]; pH 9.5 (borate/NaOH), 2 weeks, 20160 min): 79.0%
Percent Chlorine Remaining ([3]; pH 9.5 (borate/NaOH), 3 weeks, 30240 min): 71.2%
Percent Chlorine Remaining ([3]; pH 9.5 (borate/NaOH), 4 weeks, 40320 min): 60.3%
Percent Chlorine Remaining ([3]; pH 9.5 (borate/NaOH), 5 weeks, 50400 min): 50.1%
Percent Chlorine Remaining ([3]; pH 9.5 (borate/NaOH), 6.14 weeks, 61891.2 min): 38.5%
Percent Halogen Remaining ([4]; pH 7.0, 3.0 hrs): 26.0%
Percent Halogen Remaining ([4]; pH 7.0, 5.0 hrs): 6.9%
Percent Halogen Remaining ([4]; pH 7.0, 10.0 hrs): 0.0%

CC1(C)C(=O)N(Br)C(C)(C)N1Br [Compound 4, 1,3-dibromo-2,2,5,5-tetramethylimidazolidin-4-one]
remaining at 23.52 h ([3]; demand-free water, pH 9.5): 91.4%
remaining at 72.24 h ([3]; demand-free water, pH 9.5): 71%
remaining at 168 h ([3]; demand-free water, pH 9.5): 36%
remaining at 336 h ([3]; demand-free water, pH 9.5): 4.8%
